Measured values as given in patent US12528790B2, “Amide derivative having antiviral activity” (Shionogi & Co., Ltd., priority 2020, dated 2026).

Tests used:
[1] = test system: RSV B (Wash/18537 strain); test: In vitro CPE (CytoPathic Effect) inhibition effect evaluation test, RSV type B; type: cell-based; details: human respiratory syncytial virus, inhibitory effect against RSV type B, CPE inhibition; read-out: EC50
Summary of the method: (§1)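 EC50 is the concentration giving 50% inhibition of virus-induced cytopathic effect, fitted by nonlinear regression from CellTiter-Glo 2.0 viability. Compounds in 3-fold series were co-incubated at 37 °C with HEp-2 cells and RSV: A2 strain for 4 days, B (Wash/18537) for 5 days; uninfected wells served as control.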

RSV A2 strain = test: In vitro CPE (CytoPathic Effect) inhibition effect evaluation test, RSV type A; type: cell-based; details: human respiratory syncytial virus; inhibitory effect against RSV type A (RSV A2 strain), HEp-2 cells, CPE inhibition; read-out: EC50
Summary of the method: as §1

SMILES	EC50 [1]	EC50 (RSV A2 strain)
COCC(C)n1cc(-c2ncc(C(=O)NC3(C(=O)O)C4CC5CC(C4)CC3C5)c(C(C)(F)F)n2)c2ccc(OC3CCN(CC(C)(F)F)CC3)cc21 (stereo not shown) [Compound I-615]	< 10 nM	< 10 nM
CC(C)n1cc(-c2ncc(C(=O)NC3(C(=O)O)C4CC5CC(C4)CC3C5)c(C(F)(F)F)n2)c2ccc(O[C@H]3CC[C@H](N4CC(F)(F)C4)CC3)cc21 (stereo partly shown) [Compound I-616]	< 10 nM	< 10 nM
CCC(C)n1cc(-c2ncc(C(=O)NC3(C(=O)O)C4CC5CC(C4)CC3C5)c(C(F)(F)F)n2)c2ccc(O[C@H]3CC[C@H](N4CC(F)(F)C4)CC3)cc21 (stereo partly shown) [Compound I-617]	< 10 nM	< 10 nM
CC(C)n1cc(-c2ncc(C(=O)NC3(C(=O)O)C4CC5CC(C4)CC3C5)c(C(C)(F)F)n2)c2ccc(O[C@H]3CC[C@H](N4CC(F)(F)C4)CC3)cc21 (stereo partly shown) [Compound I-618]	< 10 nM	< 10 nM
COC[C@@H](C)n1cc(-c2ncc(C(=O)NC3(C(=O)O)C4CC5CC(C4)CC3C5)c(C(C)(F)F)n2)c2ccc(OC3CC(N4CC(F)(F)C4)C3)cc21 (stereo partly shown) [Compound I-620]	< 10 nM	< 10 nM
